From article PMC4884629 (Toxicology and applied pharmacology, 2013)

Target: HERG potassium channel (Homo sapiens, UniProt Q12809)
Experiment: whole-cell patch clamp, HERG tail current in CHO cells
Type: cell-based

Chain of HERG potassium channel (Q12809 whole entry): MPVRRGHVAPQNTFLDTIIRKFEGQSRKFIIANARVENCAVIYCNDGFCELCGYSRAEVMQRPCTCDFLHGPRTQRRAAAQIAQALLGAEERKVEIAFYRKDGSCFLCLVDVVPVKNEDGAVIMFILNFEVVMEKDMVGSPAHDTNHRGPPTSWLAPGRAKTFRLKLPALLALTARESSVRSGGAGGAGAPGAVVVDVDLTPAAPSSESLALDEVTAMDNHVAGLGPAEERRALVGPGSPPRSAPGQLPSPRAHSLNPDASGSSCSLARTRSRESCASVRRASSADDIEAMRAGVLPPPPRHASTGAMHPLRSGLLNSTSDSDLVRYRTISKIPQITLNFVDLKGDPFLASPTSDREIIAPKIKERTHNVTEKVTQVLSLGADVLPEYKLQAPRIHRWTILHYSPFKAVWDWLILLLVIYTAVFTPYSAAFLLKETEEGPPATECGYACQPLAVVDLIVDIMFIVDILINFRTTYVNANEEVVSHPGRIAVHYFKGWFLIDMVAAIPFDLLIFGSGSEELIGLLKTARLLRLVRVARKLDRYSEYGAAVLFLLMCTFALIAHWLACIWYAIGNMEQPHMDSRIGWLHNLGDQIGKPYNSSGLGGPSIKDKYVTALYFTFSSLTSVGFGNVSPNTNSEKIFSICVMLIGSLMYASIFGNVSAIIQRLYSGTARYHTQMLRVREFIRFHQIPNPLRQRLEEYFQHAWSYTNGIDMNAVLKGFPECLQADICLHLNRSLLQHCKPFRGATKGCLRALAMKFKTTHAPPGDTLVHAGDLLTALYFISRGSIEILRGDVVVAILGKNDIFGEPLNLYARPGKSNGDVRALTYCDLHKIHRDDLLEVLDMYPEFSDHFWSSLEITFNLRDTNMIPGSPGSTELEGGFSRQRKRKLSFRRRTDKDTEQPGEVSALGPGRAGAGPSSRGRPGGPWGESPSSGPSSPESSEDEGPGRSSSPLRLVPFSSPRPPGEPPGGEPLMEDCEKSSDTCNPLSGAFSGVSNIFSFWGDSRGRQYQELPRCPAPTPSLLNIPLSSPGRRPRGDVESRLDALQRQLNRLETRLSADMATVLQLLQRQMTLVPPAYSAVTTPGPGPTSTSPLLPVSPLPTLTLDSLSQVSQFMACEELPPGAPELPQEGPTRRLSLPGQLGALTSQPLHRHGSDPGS

CCCCCCCC[N+](CCCCCCCC)(CCCCCCCC)CCCCCCCC [TB, tetra-n-octylammonium bromide]
IC50: 4 nM
